In the pKa sets of Baltruschat and Czodrowski (2020) one finds pKa data, which are given here for 135 compounds.

The structures appear in SMILES notation.

The term pKa denotes the pH at which an ionisable group is half protonated. Low values mean a stronger acid or weaker base, high ones a weaker acid or stronger base. In turn, `CCC(=O)c1cc(C(C)=O)n[nH]1` gave a pKa (acidic group) of 9.05.
`COc1c(C)ncc(CO)c1C=O`: for the setting “basic group”, the pKa worked out at 4.75.
The same measure, in the same setting: the result for `c1ccc2c(c1)CCCN2` reads 4.96.
`Oc1nc2ccccc2c[nH+]1`: where the note is “acidic group”, the pKa worked out at 1.3.
`CNC(CO)CO` gave a pKa (basic group) of 9.12.
Consider `C[C@H]([C@H](O)c1ccccc1)N(C)C`, for which the pKa (basic group) stood at 10.
For the setting “acidic group”, `ONc1cc[n+](O)c2ccccc12` came in with a pKa of 3.89.
On to `CNNC1CCN(C)CC1`, for which, where the note is “basic group”, the pKa is 8.7.
Same read-out and setting: the result for `CCCN(CCC)Cc1ccccc1O` reads 8.3.
For `Cc1cc(C(CC(=O)O)c2ccccc2)ccc1O` (stereo unspecified), the pKa (acidic group) was 4.67.
Same read-out and setting: the result for `Nc1ccc(O)cc1[O-]` reads 11.3; that for `COc1cc2ccccc2cc1C(=O)O`, 3.82.
As for `Cc1cc(N[NH3+])nc2ccccc12`, the pKa (basic group) is 2.8.
Same read-out and setting: the result for `CCN1CC1` reads 7.91.
In turn, `OC(c1ccncc1)n1cc[nH+]c1` (stereo unspecified) showed a pKa (acidic group) of 7.24.
Where the note is “basic group”, `c1ccc(C(CCN2CCCCC2)c2ccccc2)cc1` gave a pKa of 8.96.
In the case of `CCN(CC1CO1)CC1CO1` (stereo unspecified), the pKa (basic group) was 6.91.
The same measure, in the same setting: next, `CN(C)CCO`: 9.36; `Cc1ccc(NC(=O)CN2CCCCC2)cc1`: 7.85.
The same measure, in the same setting: next, `Clc1ccc(Nc2ccccc2)cc1`: 0.
In the case of `O=C(O)c1cccc(Oc2ccccc2)c1`, where the note is “acidic group”, the pKa worked out at 3.95.
Still for that read-out and setting: the result for `O=C(O)[C@H]1C[C@@H]1c1ccc(Cl)cc1` reads 4.53.
Under “basic group”, `CC(C)CSC(=N)c1ccccc1` had a pKa of 8.22.
Regarding `CCSC(=O)c1cccc(C)c1`, the pKa (basic group) was -4.77.
`Cc1ccc([Se](=O)O)cc1` registered a pKa (acidic group) of 4.88.
With `Nc1ncc2ccccc2n1`, the pKa (basic group) stood at 4.8.
Same read-out and setting: next, `COC(=O)c1ccccc1N(C)C`: 5.55.
`CC(C)=C(C(N)=O)C(=O)O` displayed a pKa (acidic group) of 3.95.
`NC(=O)CCCc1ccncc1`: under “basic group”, the pKa came out at 5.64.
For the setting “acidic group”, `CCCCO` registered a pKa of 15.6.
Take `[O-]c1nc2ccccc2[nH]1`: under “basic group”, the pKa worked out at 11.9.
In the case of `COCC(=O)NN`, the pKa (acidic group) is 12.1.
The compound `Cc1cc(-c2ccccc2)nn(CCN2CCOCC2)c1=N` yielded a pKa (basic group) of 9.7.
On to `Cn1cccc1C(=O)O`, for which, where the note is “acidic group”, the pKa came to 4.51.
The compound `OCCN1CCNCC1` came in with a pKa (basic group) of 9.33.
For the compound `O=C(O)[C@@H]1O[C@H](Oc2c[nH+]c3ccccc3c2)[C@@H](O)[C@H](O)[C@H]1O`, the pKa (acidic group) stood at 3.
On the same count and under the same terms, next, `C/C(=N\O)C(=O)c1ccccc1`: 9.25; `O=C(O)[C@H]1C[C@H]2CC[C@@H]1C2`: 5.08; `O=C1NC(=O)C(=NO)C(=O)N1`: 4.58.
For the compound `COc1c(C(=O)O)oc2ccccc12`, the pKa (acidic group) turned out to be 3.7.
Same read-out and setting: the result for `Nc1nc2c(ncn2[C@@H]2C=C[C@H](CO)C2)c(O)[nH+]1` reads 3.15.
Turning to `C1CCc2c(nnc3c2CCCC3)C1`, the pKa (basic group) was 6.12.
Regarding `O=C(O)[C@@H]1O[C@H](Oc2ccc3[nH+]c(O)ccc3c2)[C@@H](O)[C@H](O)[C@H]1O`, the pKa (acidic group) stood at 3.07.
`Cc1ccc([Se]CC(=O)O)cc1`: the pKa (acidic group) was 3.86.
For `C[NH+]1CCN(C(c2ccccc2)c2ccccc2)CC1`, for the setting “basic group”, the pKa came to 2.16.
`COc1ccc(OC)c2c1nc(CCl)n2C` registered a pKa (basic group) of 4.1.
Same read-out and setting: the result for `C[NH+](C)CCN` reads 6.63.
In the case of `S=C1NC(=S)C(c2ccccc2)N1` (stereo unspecified), the pKa reads like this: (acidic group) 8.15; (basic group) -3.16.
Consider `C=C(C)C(=O)OCCN(C)CCCC`, for which, where the note is “basic group”, the pKa worked out at 8.27.
The compound `[NH3+]CC(=O)N[C@@H](Cc1c[nH]c[nH+]1)C(=O)O` had a pKa (acidic group) of 2.61.
Compound `CCSC(C)=N` returned a pKa (basic group) of 6.9.
In the case of `Cc1ccc([P+](c2ccc(C)cc2)(c2ccc(C)cc2)C2c3ccccc3-c3ccccc32)cc1`, for the setting “acidic group”, the pKa was 9.64.
Compound `Cc1n[nH]c2c(N)cccc12` returned a pKa (basic group) of 3.18.
Still for that read-out and setting: next, `COc1cccc(C2NCCS2)c1` (stereo unspecified): 5.12; `Nc1ccc2[nH]ncc2c1`: 5.15.
Still for that read-out and setting: the result for `CCN(CC)Cc1c(C)cccc1O` reads 8.65.
Consider `S=CNc1ccccc1Cl`, for which the pKa (acidic group) stood at 10.
`Cc1ccc(C(=N)c2ccccc2)c(C)c1` had a pKa (basic group) of 6.79.
Where the note is “acidic group”, `CNC(=O)CS(=O)(=O)NC(N)=O` gave a pKa of 4.89.
Still for that read-out and setting: next, `Cc1nn(-c2ccccc2)c(O)c1C1CCCCC1`: 11.6.
For the setting “basic group”, `CC(C)CN(CCS)CC(C)C` came in with a pKa of 8.23.
Compound `O=C(CC(=O)C(F)(F)F)c1ccccc1` displayed a pKa (acidic group) of 6.3.
Where the note is “basic group”, `c1nc(NC2CCCCC2)c2ncn(C3CCCCC3)c2n1` registered a pKa of 4.4.
As to `CC(C)N(CCc1ccccc1)CCc1ccccc1`, the pKa (basic group) is 10.
Consider `Cn1ncc2c(N)nc(Cl)nc21`, for which the pKa (basic group) came out at 2.69.
Where the note is “acidic group”, `Cc1ccc(O)c(=O)cc1` had a pKa of 7.32.
As to `Cc1ccc(N)cc1[N+](=O)[O-]`, the pKa (basic group) worked out at 3.
Consider `O=C(O)[C@H]1C[C@@H]1c1ccc([N+](=O)[O-])cc1`, for which, where the note is “acidic group”, the pKa came to 4.45.
As to `O=C([O-])[C@@H]1O[C@H](Oc2ccc3[nH+]c(O)ccc3c2)[C@@H](O)[C@H](O)[C@H]1O`, the pKa (acidic group) was determined as 3.75.
`Cc1ncc2c(c1O)C(O)OC2` (stereo unspecified): the pKa was found to be 8.75 (acidic group) and 4.3 (basic group).
In turn, `Cc1c[n+](C)c([O-])nc1N` returned a pKa (basic group) of 4.76.
Same read-out and setting: the result for `Nc1nc(N)c2[nH]c(N)[nH+]c2n1` reads 2.41; that for `C[NH2+]CC/C(N)=N/O`, 3.6.
Still for that read-out and setting: next, `CC1CC(=O)CC(=O)O1` (stereo unspecified): 5.1.
Still for that read-out and setting: next, `CCCNCCN`: 10.3.
Turning to `[NH3+]CC(=O)N[C@@H](Cc1c[nH]cn1)C(=O)[O-]`, the pKa (basic group) was found to be 6.77.
Same read-out and setting: next, `CCCCCCCCCCCCCCCCCCN(CC(O)CC)CC(O)CC` (stereo unspecified): 5.6; `Cc1cc(-c2ccccc2)nnc1NCCN1CCOCC1`: 7.05.
Consider `O=[N+]([O-])c1cccc(S(=O)(=O)O)c1`, for which the pKa (acidic group) is -7.1.
Still for that read-out and setting: the result for `Cc1ccccc1[N+](C)(C)O` reads 4.78.
Same read-out and setting: next, `O=C(O)C1(C(=O)O)CCCC1`: 3.24.
Turning to `CCSCCN(CC)CC`, for the setting “basic group”, the pKa came out at 9.03.
Turning to `O=C([O-])CCC(=O)C=C=Cc1ccccc1`, the pKa (acidic group) was 13.3.
Still for that read-out and setting: next, `CCC1C(=O)c2ccccc2C1=O`: 6.5.
Compound `Cn1cnc2c(N=O)c(O)ccc21` displayed a pKa (acidic group) of 6.76 and a pKa (basic group) of 3.31.
With `Oc1nc(C(F)(F)F)nc2[nH+]c[nH]c12`, for the setting “acidic group”, the pKa came out at 1.1.
`OCc1ccncc1` showed a pKa (basic group) of 5.41.
In turn, `O=C(O)/C=C\C(=O)NOCc1ccccc1` had a pKa (acidic group) of 3.8.
In turn, `C[C@H](O)C(=O)C1=Nc2c(nc(N)[nH+]c2O)NC1` returned a pKa (acidic group) of 1.45.
`CN(C)C(=S)OCC(=O)O` displayed a pKa (acidic group) of 2.87.
Still for that read-out and setting: the result for `C/C=C/C1=C(O)C(=O)c2ccccc2C1=O` reads 4.78.
As for `Cc1ccccc1C(=NCCCN(C)C)c1ccccc1C`, under “basic group”, the pKa is 8.7.
For the compound `O=C(O)c1ccccc1Cl`, the pKa (acidic group) worked out at 2.95.
With `N=C(N)Nc1nccc(-c2csc(N)n2)n1`, the pKa (basic group) amounted to 9.2.
`Oc1cccc2nnccc12` showed a pKa (acidic group) of 7.4 and a pKa (basic group) of 1.92.
For the setting “acidic group”, `O=[N+]([O-])c1ccc2c(c1)Cc1cc(O)ccc1-2` yielded a pKa of 9.01.
Where the note is “acidic group”, `CC(=O)N(C)O` returned a pKa of 8.73.
The same measure, in the same setting: the result for `O=[N+]([O-])c1ccccc1O` reads 7.15.
`OCCN(CCO)Cc1nc2ccccc2[nH]1` registered a pKa (basic group) of 5.93.
`Oc1cncnc1`: the pKa was determined as 6.78 (acidic group) and 1.87 (basic group).
Under “acidic group”, `Cc1ccc(O)cc1[S+](C)C` displayed a pKa of 8.01.
On to `O=C1CCC[C@H]2[C@H]3C[C@@H](CN12)[C@@H]1CCCCN1C3`, for which the pKa (basic group) is 9.4.
Consider `O=c1[nH]ccc2nnnn12`, for which the pKa (acidic group) came to 6.95.
`C=C[C@H]1C[NH+]2CC[C@@H]1C[C@H]2[C@H](O)c1ccnc2ccc(OC)cc12` had a pKa (basic group) of 4.22.
Take `CC(C)CCC1=C(O)C(=O)c2ccccc2C1=O`: under “acidic group”, the pKa stood at 5.13.
`C[S+](C)c1ccc(O)cc1`: the pKa (acidic group) is 7.31.
Under “basic group”, `CCOC(=O)CCN` gave a pKa of 9.13.
The same measure, in the same setting: the result for `c1ccc(NC2CCCCC2)cc1` reads 5.6; that for `CC(C)=NNC1CCN(C)CC1`, 8.9.
As to `C[C@H](CCC(=O)O)[C@H]1CC[C@H]2[C@@H]3[C@@H](O)C[C@@H]4C[C@H](O)CC[C@]4(C)[C@H]3CC[C@]12C`, where the note is “acidic group”, the pKa is 5.08.
`COc1cc(C)n(-c2ccccc2)n1` registered a pKa (basic group) of 1.5.
Regarding `NS(=O)(=O)c1ccccc1C(=O)O`, the pKa (basic group) came out at 3.14.
Still for that read-out and setting: next, `c1ccc2nc3ccccc3nc2c1`: 1.31.
`CCCCCCP(=O)(O)CCCCCC` showed a pKa (acidic group) of 3.24.
Turning to `FC(F)(F)c1cccc2ncccc12`, for the setting “basic group”, the pKa amounted to 3.09.
`Cc1ccc(C(=O)N(C)O)cc1`: the pKa (acidic group) is 8.5.
Same read-out and setting: next, `CC(C)(C)OO`: 12.8; `[NH3+]C(CCc1ccc([N+](=O)[O-])cc1)C(=O)O` (stereo unspecified): 3.05.
Consider `CCN(CC)CCC(OC(=O)c1ccccc1)c1ccccc1` (stereo unspecified), for which, for the setting “basic group”, the pKa is 7.53.
The same measure, in the same setting: next, `c1ccc2[nH]c(-c3ccncc3)nc2c1`: 10.8; `Nc1ccc2nc3ccc(N)cc3cc2c1`: 6.18.
Regarding `Cc1ncnc2c(O)cccc12`, the pKa was determined as 8.75 (acidic group) and 2.9 (basic group).
In the case of `O=S(=O)([O-])c1ccc2c(/N=N/c3ccc4[nH]cnc4c3)c(O)c(S(=O)(=O)[O-])cc2c1`, the pKa (acidic group) amounted to 9.8.
In the case of `NCCCCCc1cccnc1`, the pKa (basic group) is 10.3.
In turn, `O=C1C[C@H]2C(=O)NC(=O)[C@H]2N1` gave a pKa (acidic group) of 8.15.
With `O=[N+]([O-])c1cc(CN2CCCCC2)c([O-])c2ccccc12`, the pKa (basic group) came out at 10.7.
Still for that read-out and setting: the result for `C/C(=C\C(C)=N\c1ccccc1)Nc1ccccc1` reads 7.22.
Take `Nc1ncc(Cl)s1`: the pKa (basic group) amounted to 3.66.
Where the note is “acidic group”, `Cc1nnc(NS(=O)(=O)c2ccc(O)cc2)s1` returned a pKa of 5.37.
Compound `C#CCCCCCCN` displayed a pKa (basic group) of 10.7.
`CNCCc1ccc(O)cc1`: the pKa (basic group) amounted to 9.36.
On the same count and under the same terms, the result for `Cc1ccc(C2CCCN2)cc1` (stereo unspecified) reads 9.99; that for `O=C(CN1CCCCC1)Nc1ccccc1`, 7.85; that for `CCN(CC)CCOC(=O)c1ccccc1`, 8.9.
The compound `O=[N+]([O-])c1cccc(NC=S)c1` showed a pKa (acidic group) of 10.3.
